Consider two compounds from US6376551B1, “Treatment of chronic fatigue syndrome” (Knoll Pharmaceutical Company, priority 1999, dated 2002).

As usually defined, the Ki is the dissociation constant of the complex between target and ligand, obtained from inhibition or displacement.

Assay [1] has as its target [3H]Noradenaline reuptake in rat brain tissue. The experiment in a line: in vitro [3H]noradrenaline reuptake inhibition in rat brain tissue. Type of assay: biochemical. As to conditions: means of >3 separate determinations.
The target in assay [2] is [3H]Dopamine reuptake in rat brain tissue. The experiment in a line: in vitro [3H]dopamine reuptake inhibition in rat brain tissue. It counts as biochemical. Particulars: means of >3 separate determinations.

On to `CC(NC(C)(C)C)C(=O)c1cccc(Cl)c1` (stereo not shown) [Bupropion], for which the Ki in assay [1] amounted to 2590 nM; in assay [2], 409 nM.

On to `COc1ccc(C(CN(C)C)C2(O)CCCCC2)cc1` (stereo not shown) [Venlafaxine], for which the values for the inhibition constant (Ki) in assay [1] and in assay [2] were 196 nM and 2590 nM, respectively.
